Like-named read-outs stand apart in the source and are kept apart here.

For orientation: ED50 means the dose at which the effect has come halfway, by size or by number of responders.

For this experiment, the system named is adjuvant-induced arthritis in rats. As to the kind of experiment: Established Adjuvant-Induced Arthritis in Rats. It is filed as in vivo, Lewis (Wistar) male rats. To be noted: for ED50: read-out: Adjuvant Arthritis ED50; for percent paw volume reduction at the indicated dose: oral gavage once daily for 7 days.
The mark [1] stands for this setting: rat, oral gavage once daily for 7 days (days 14-20), decrease from control paw volume, uninjected left hind paw, day 21, estimated from dose-response regression lines by inspection.

With `COc1ccc(-c2nc(C(N)(C(F)(F)F)C(F)(F)F)[nH]c2-c2ccc(OC)cc2)cc1` [Example 1, 4,5-Bis(4-methoxyphenyl)-α,α-di(trifluoromethyl)-1H-imidazole-2-methanamine], the ED50 under setting [1] is 2 mg/kg.

Consider `NC(c1nc(-c2ccc(F)cc2)c(-c2ccc(F)cc2)[nH]1)C(F)(F)F` (stereo not drawn) [Example 2, 4,5-Bis(4-fluorophenyl)-α-trifluoromethyl-1H-imidazole-2-methanamine], for which the 50% effective dose (ED50) under setting [1] was 19 mg/kg. For `CNC(c1nc(-c2ccc(F)cc2)c(-c2ccc(F)cc2)n1C)(C(F)(F)F)C(F)(F)F` [Example 3, 4,5-Bis-(4-fluorophenyl)-N,1-dimethyl-α,α-di(trifluoromethyl)-1H-imidazole-2-methanamine], under “rat, @ 25 mg/kg”, the “percent paw volume reduction at the indicated dose” value is -41%. For `NC(c1nc(-c2ccc(F)cc2)c(-c2ccc(F)cc2)[nH]1)(C(F)(F)F)C(F)(F)F` [Example 4, 4,5-bis(4-fluorophenyl)-α,α-di(trifluoromethyl)-1H-imidazole-2-methanamine], the ED50 under setting [1] was 1.7 mg/kg.

As to `COc1ccc(-c2nc(C(N)(C(F)(F)F)C(F)(F)F)n(C)c2-c2ccc(OC)cc2)cc1` [Example 5], under “rat, @ 50 mg/kg”, the “percent paw volume reduction at the indicated dose” value is -27%. On to `Cn1c(C(N)(C(F)(F)F)C(F)(F)F)nc(-c2ccc(F)cc2)c1-c1ccc(F)cc1` [Example 6, 4,5-bis(4-fluorophenyl)-1-methyl-α,α-di(trifluoromethyl)-1H-imidazole-2-methanamine], for which the median effective dose (ED50) under setting [1] is 3.4 mg/kg. As to `Cc1ccc(-c2nc(C(N)(C(F)(F)F)C(F)(F)F)[nH]c2-c2ccc(C)cc2)cc1` [Example 7], the ED50 under setting [1] is 5.4 mg/kg. Take `NC(c1nc(-c2ccc(Cl)cc2)c(-c2ccc(Cl)cc2)[nH]1)(C(F)(F)F)C(F)(F)F` [Example 8]: the ED50 (Rattus norvegicus, po) is 7 mg/kg. Consider `NC(c1nc(-c2ccccc2)c(-c2ccccc2)[nH]1)(C(F)(F)F)C(F)(F)F` [Example 9], for which, under setting [1], the ED50 was 8 mg/kg.

The values are drawn from patent publication US4348404A, “Antiinflammatory 4,5-diaryl-α-polyfluoroalkyl-1H-imidazole-2-methanamines” (E. I. Du Pont de Nemours and Company, priority 1981, dated 1982).
